Measured values: patent US10874104B2, “Pesticidally active pryazole derivatives” (SYNGENTA PARTICIPATIONS AG, priority 2016, dated 2020)
Where two headings read alike, the source gives them in different places.

Columns and labels:
Assay type in all cases: in vivo
[1] = system: Diabrotica balteata (Corn Root Worm); test: Diabrotica balteata (corn root worm), sprayed maize sprouts on agar, mortality; conditions: 96 h
Experimental: Diabrotica balteata (Corn Root Worm):
Maize sprouts placed onto an agar layer in 24-well microtiter plates were treated with aqueous test solutions prepared from 10′000 ppm DMSO stock solutions by spraying. After drying, the plates were infested with L2 larvae (6 to 10 per well). The samples were assessed for mortality 4 days after infestation.

[2] = system: Euschistus heros (Neotropical Brown Stink Bug); test: Euschistus heros (neotropical brown stink bug), feeding/contact activity, mortality; conditions: 120 h
Experimental: Euschistus heros (Neotropical Brown Stink Bug): Feeding/contact activity
Soybean leaves on agar in 24-well microtiter plates were sprayed with aqueous test solutions prepared from 10′000 ppm DMSO stock solutions. After drying the leaves were infested with N2 nymphs. The samples were assessed for mortality 5 days after infestation.

[3] = system: Myzus persicae (Green Peach Aphid); test: Myzus persicae (green peach aphid), feeding/contact activity, mortality; conditions: 144 h, application rate 200 ppm, aphid population of mixed ages, 6 days after infestation
Experimental: Myzus persicae (Green Peach Aphid): Feeding/Contact Activity
Sunflower leaf discs were placed onto agar in a 24-well microtiter plate and sprayed with aqueous test solutions prepared from 10′000 ppm DMSO stock solutions. After drying, the leaf discs were infested with an aphid population of mixed ages. The samples were assessed for mortality 6 days after infestation.

[4] = system: Plutella xylostella (Diamond Back Moth); test: Plutella xylostella (diamond back moth), feeding/contact activity on artificial diet, mortality; conditions: 120 h
Experimental: Plutella xylostella (Diamond Back Moth): Feeding/Contact Activity
24-well microtiter plates with artificial diet were treated with aqueous test solutions prepared from 10′000 ppm DMSO stock solutions by pipetting. After drying, the plates were infested with L2 larvae (10 to 15 per well). The samples were assessed for mortality 5 days after infestation.

[5] = system: Spodoptera littoralis (Egyptian Cotton Leaf Worm); test: Spodoptera littoralis (Egyptian cotton leaf worm), feeding/contact activity, mortality; conditions: 72 h
Experimental: Spodoptera littoralis (Egyptian Cotton Leaf Worm): Feeding/Contact Activity
Cotton leaf discs were placed onto agar in 24-well microtiter plates and sprayed with aqueous test solutions prepared from 10′000 ppm DMSO stock solutions. After drying the leaf discs were infested with five L1 larvae. The samples were assessed for mortality 3 days after infestation.

[6] = system: Tetranychus urticae (Two-Spotted Spider Mite); test: Tetranychus urticae (two-spotted spider mite), feeding/contact activity, mortality; conditions: 192 h, application rate 200 ppm, mixed population (mobile stages), 8 days after infestation
Experimental: Tetranychus urticae (Two-Spotted Spider Mite): Feeding/Contact Activity
Bean leaf discs on agar in 24-well microtiter plates were sprayed with aqueous test solutions prepared from 10′000 ppm DMSO stock solutions. After drying the leaf discs were infested with a mite population of mixed ages. The samples were assessed for mortality on mixed population (mobile stages) 8 days after infestation.

[7] = system: Thrips tabaci (Onion Thrips); test: Thrips tabaci (onion thrips), feeding/contact activity, mortality; conditions: 144 h
Experimental: Thrips tabaci (Onion Thrips): Feeding/Contact Activity
Sunflower leaf discs were placed on agar in 24-well microtiter plates and sprayed with aqueous test solutions prepared from 10′000 ppm DMSO stock solutions. After drying the leaf discs were infested with a thrips population of mixed ages. The samples were assessed for mortality 6 days after infestation.

[8] = application rate 200 ppm, L2 larvae, 4 days after infestation, read-out: mortality
[9] = application rate 200 ppm, N2 nymphs, 5 days after infestation, read-out: mortality
[10] = application rate 200 ppm, L2 larvae on artificial diet, 5 days after infestation, read-out: mortality
[11] = application rate 200 ppm, L1 larvae, 3 days after infestation, read-out: mortality
[12] = application rate 200 ppm, thrips population of mixed ages, 6 days after infestation, read-out: mortality

Measured: mortality at 200 ppm

Cn1nc(C(F)(F)C(F)(F)F)c(OC(F)F)c1-n1cc(-c2ccc(Cl)c(C(=O)NC3(C#N)CC3)c2)cn1 [Compound 1, 2-chloro-N-(1-cyanocyclopropyl)-5-[1-[4-(difluoromethoxy)-2-methyl-5-(1,1,2,2,2-pentafluoroethyl)pyrazol-3-yl]pyrazol-4-yl]benzamide]
≥ 80%: [1]; [8] | [2]; [9] | [3] | [4]; [10] | [5]; [11] | [6]

Cn1nc(C(F)(F)C(F)(F)F)c(OC(F)F)c1-n1cc(-c2ccc(Cl)c(C(=O)NC3CC3)c2)cn1 [Compound 2, 2-Chloro-N-cyclopropyl-5-[1-[4-(difluoromethoxy)-2-methyl-5-(1,1,2,2,2-pentafluoroethyl)-pyrazol-3-yl]pyrazol-4-yl]benzamide]
≥ 80%: [1]; [8] | [2]; [9] | [3] | [4]; [10] | [5]; [11] | [6]

COc1c(C(F)(F)C(F)(F)F)nn(C)c1-n1cc(-c2ccc(Cl)c(C(=O)NC3CC3)c2)cn1 [Compound 6]
≥ 80%: [1]; [8] | [2]; [9] | [4]; [10] | [5]; [11] | [6] | [7]; [12]

C=Cc1c(C(F)(F)C(F)(F)F)nn(C)c1-n1cc(-c2ccc(Cl)c(C(=O)NC3(C#N)CC3)c2)cn1 [Compound 15, 2-Chloro-N-(1-cyanocyclopropyl)-5-[1-[2-methyl-5-(1,1,2,2,2-pentafluoroethyl)-4-vinyl-pyrazol-3-yl]pyrazol-4-yl]benzamide]
≥ 80%: [1]; [8] | [2]; [9] | [3] | [4]; [10] | [5]; [11] | [6]

C#Cc1c(C(F)(F)C(F)(F)F)nn(C)c1-n1cc(-c2ccc(Cl)c(C(=O)NC3(C#N)CC3)c2)cn1 [Compound 17]
≥ 80%: [1]; [8] | [2]; [9] | [3] | [4]; [10] | [6]

C#Cc1c(C(F)(F)C(F)(F)F)nn(C)c1-n1cc(-c2ccc(Cl)c(C(=O)NC3CC3)c2)cn1 [Compound 18]
≥ 80%: [5]; [11]

Cn1nc(C(F)(F)C(F)(F)F)c(S(=O)(=O)C2CC2)c1-n1cc(-c2ccc(Cl)c(C(=O)NC3CC3)c2)cn1 [Compound 33]
≥ 80%: [1]; [8] | [2]; [9] | [4]; [10] | [5]; [11] | [6] | [7]; [12]

Cn1nc(C(F)(F)C(F)(F)F)c(S(=O)(=O)C2CC2)c1-n1cc(-c2ccc(Cl)c(C(=O)NC3(C#N)CC3)c2)cn1 [Compound 35]
≥ 80%: [1]; [8] | [2]; [9] | [4]; [10] | [5]; [11] | [6] | [7]; [12]

Cn1nc(C(F)(F)C(F)(F)F)c(OC(F)(F)C(F)F)c1-n1cc(-c2ccc(Cl)c(C(=O)NC3(C#N)CC3)c2)cn1 [Compound 37]
≥ 80%: [1]; [8] | [2]; [9] | [4]; [10] | [5]; [11] | [6] | [7]; [12]

CCOc1c(C(F)(F)C(F)(F)F)nn(C)c1-n1cc(-c2ccc(Cl)c(C(=O)NC3(C#N)CC3)c2)cn1 [Compound 38]
≥ 80%: [1]; [8] | [2]; [9] | [4]; [10] | [5]; [11] | [6]

Cn1nc(C(F)(F)C(F)(F)F)c(OCC(F)F)c1-n1cc(-c2ccc(Cl)c(C(=O)NC3(C#N)CC3)c2)cn1 [Compound 39]
≥ 80%: [1]; [8] | [2]; [9] | [4]; [10] | [5]; [11] | [6]

Cn1nc(C(F)(F)C(F)(F)F)c(OC(F)(F)C(F)(F)C(F)(F)F)c1-n1cc(-c2ccc(Cl)c(C(=O)NC3(C#N)CC3)c2)cn1 [Compound 40]
≥ 80%: [1] | [2] | [4] | [5] | [7]

Cn1nc(C(F)(F)C(F)(F)F)c(OC(F)(F)C(F)C(F)(F)F)c1-n1cc(-c2ccc(Cl)c(C(=O)NC3(C#N)CC3)c2)cn1 (stereo not drawn) [Compound 43]
≥ 80%: [1]; [8] | [4]; [10] | [5]; [11] | [7]; [12]

Cn1nc(C(F)(F)C(F)(F)F)c(OCC(F)F)c1-n1cc(-c2ccc(Cl)c(C(=O)NC3CC3)c2)cn1 [Compound 44]
≥ 80%: [1]; [8] | [4]; [10] | [5]; [11] | [6]

Cn1nc(C(F)(F)C(F)(F)F)c(OC(F)(F)C(F)(F)C(F)(F)F)c1-n1cc(-c2ccc(Cl)c(C(=O)NC3CC3)c2)cn1 [Compound 45]
≥ 80%: [1] | [4] | [5] | [7]

Cn1nc(C(F)(F)C(F)(F)F)c(OC(F)(F)C(F)C(F)(F)F)c1-n1cc(-c2ccc(Cl)c(C(=O)NC3CC3)c2)cn1 (stereo not drawn) [Compound 46]
≥ 80%: [1]; [8] | [4]; [10] | [5]; [11] | [7]; [12]

Cn1nc(C(F)(F)C(F)(F)F)c(OC(F)F)c1-n1cc(-c2cc(C(=O)NC3CC3)c(Cl)cc2F)cn1 [Compound 47]
≥ 80%: [4]; [10]

Cn1nc(C(F)(F)C(F)(F)F)c(OC(F)(F)C(F)C(F)(F)F)c1-n1cc(-c2ccc(Cl)c(C(=O)NCc3ccccc3)c2)cn1 (stereo not drawn) [Compound 57]
≥ 80%: [3]

CCN(C(=O)c1cc(-c2cnn(-c3c(OC(F)F)c(C(F)(F)C(F)(F)F)nn3C)c2)ccc1C#N)C1CC1 [Compound 58]
≥ 80%: [1]; [8]

CN(C(=O)c1cc(-c2cnn(-c3c(OC(F)F)c(C(F)(F)C(F)(F)F)nn3C)c2)ccc1C#N)C1CC1 [Compound 59]
≥ 80%: [1]; [8]

CN(C(=O)c1cc(-c2cnn(-c3c(OC(F)F)c(C(F)(F)C(F)(F)F)nn3C)c2)ccc1C#N)C1(C#N)CC1 [Compound 61]
≥ 80%: [1]; [8]

Cn1nc(C(F)(F)C(F)(F)F)c(OC(F)F)c1-n1cc(-c2ccc(C#N)c(C(=O)NC3CC3)c2)cn1 [Compound 62]
≥ 80%: [1]; [8]

Cn1nc(C(F)(F)C(F)(F)F)c(OC(F)F)c1-n1cc(-c2ccc(Cl)c(C(=O)NC3(C#N)CC3)c2)nn1 [Compound 64, 2-Chloro-N-(1-cyanocyclopropyl)-5-[1-[4-(difluoromethoxy)-2-methyl-5-(1,1,2,2,2-pentafluoroethyl)pyrazol-3-yl]triazol-4-yl]benzamide]
≥ 80%: [1]; [8]

Cn1nc(C(F)(F)C(F)(F)F)c(OC(F)F)c1-n1cc(-c2ccc(Cl)c(C(=O)NC3CC3)c2)nn1 [Compound 65]
≥ 80%: [1]; [8]
